The source of these data is patent US20220133894A1, “BISPHOSPHONATE-LINKED COMPOUNDS” (OREGON HEALTH & SCIENCE UNIVERSITY, priority 2019, published 2022).

Data set [1] deals with MDA-MB-231 human breast cancer cells. Description: 7 day colony formation assay, chemotherapy with or without KBU2046. In kind it is cell-based. The protocol:
To assess the impact of cytotoxic chemotherapy on PCa growth kinetics seven-day soft agar colony formation assays and three-day MTT cell growth inhibition assays were performed as described by us ([…] et al., Cancer Lett 352, 179-186 (2014)). MTT assays were in replicates of N=3, and were repeated, soft agar assays were in replicates of N=2 and are presented as mean number of colonies, expressed as percent of untreated controls. For PC3-M PCa and MDA-MB-231 triple negative breast cancer cells, data are the mean±SD (N=2 replicates) number of colonies in 7 day colony formation assays. All data are expressed as the percentage of untreated control cells. Cells were treated with 10 μM KBU2046 or vehicle (CO), and the indicated concentration and type of chemotherapy.

Data set [2] has as its system prostate specific antigen (PSA). The experiment in a line: PSA expression by qRT/PCR in LNCaP cells. In kind it is cell-based, human. The settings on record: LNCaP cells in androgen depleted media. The protocol:
Cells were cultured in media depleted of androgen and after a washout of 72 hrs were treated with the synthetic androgen R1881, KBU2046, enzalutamide and/or vehicle (control), and resultant effects upon induction of the androgen-responsive gene, prostate specific antigen (PSA) were measured (FIG. 3A).
LNCaP or VCaP cells cultured in hormone free media were treated with R1881 (R), KBU2046 (46) and/or enzalutamide (E). (FIGS. 3A and 3B) Effects on AR-responsive gene expression. PSA expression was measured by qRT/PCR, normalized to GAPDH and expressed as a percent of control cells (N=3 replicates); * denotes P<0.05 for groups separated by bar. (FIGS. 3C and 3D) Effects on cell growth. Three day growth assays were performed. Data are the number of viable cells, expressed as % of control (N=3 replicates); * P<0.05 compared to control. (E) Effects on AR activation. Western blots of nuclear (N) and cytoplasmic (C) preparations of cell extracts were probed for AR, laminin 1 or α-tubulin. (FIGS. 3F and 3G) Effects on tumor outgrowth after androgen deprivation therapy. LNCaP/AR-luc cells were implanted subcutaneously (N=6 mice/cohort) or orthotopic (N=15 mice/cohort were implanted; N=5 yielded tumors) into castrate mice, treatment with KBU2046 began as noted, and weekly IVIS imaging performed. Data are tumor size, expressed as luminescence intensity. All data are expressed as mean±SEM.
RNA was isolated and qRT/PCR performed as previously described by us (Ding et al., J Biomol Tech 18, 321-330 (2007)). Resultant data were analyzed using the 2^−ΔΔt method (Livak et al., Methods 25, 402-408 (2001)), normalized to GAPDH, for the following primer/probe sets (ABI) PSA (Hs02576345_m1) and GAPDH (Hs99999905_m1). Assays were performed in triplicate, and were repeated.

The subject of data set [3] is RAW 267.4 cells. The experiment in a line: Osteo Assay pit formation, osteoclast-mediated bone degradation. In kind it is cell-based, mouse. The protocol: FIG. 4 represents the KBU2046 inhibition of osteoclast function. FIG. 4A compares effects on Raf1 activation. RAW 267.4 cells were treated with RANKL for 4 days, treated with 10 μM KBU2046 for the indicated time periods, and Western blot for the denoted proteins performed. (B) Effects on cell morphology. RAW 267.4 cells were treated with RANKL and with KBU2046 for 4 days, or not, and denoted, and stained for actin (green) and DAPI (blue); white arrow denotes an actin ring, yellow arrow a resorptive cavity. Representative immunofluorescent images are depicted. (C) Tartrate resistant acid phosphatase (TRAP) expression. […] RAW 267.4 cells were plated onto Osteo Assay plates, treated with RANKL for 6 days and with KBU2046 (or vehicle for controls) as indicated and bone surface area quantified. Data are the mean±SEM (N=3 replicates) of bone surface area, expressed as the percentage of control cells; * denotes P<0.05 compared to control.
To determine whether KBU2046 inhibits osteoclast-mediated bone degradation, we used Corning Osteo Assay Surface plates, which are coated with calcium-phosphate-based bone mineral. This platform supports osteoclast growth, allowing for the quantitative measurement of bone degradation, and has previously been used to measure bisphosphonate-mediated inhibition of bone degradation (40). […]

As for `O=C1c2ccccc2OCC1c1ccc(F)cc1` (stereo not shown) [KBU2046, 3-(4-fluorophenyl)chroman-4-one], the “effect on activity of adriamycin” value in data set [1] (10 μM KBU2046, MDA-MB-231 cells, FIG. 13) is listed as “does not inhibit”. Also, the “effect on activity of vinblastine” value in data set [1] (10 μM KBU2046, MDA-MB-231 cells, FIG. 15) was “does not inhibit”. Also, the “effect on activity of taxol” value in data set [1] (10 μM KBU2046, MDA-MB-231 cells, FIG. 17) is “does not inhibit”. Moreover, the “interference upon cytotoxic action of adriamycin, taxol and vinblastine” value in data set [1] (KBU2046 co-administered, MDA-MB-231 cells) is given as “lack of interference”. Further, the PSA expression entry in data set [2] is reported as “no significant effect”. In data set [3] (10 μmol/L KBU2046, RANKL, 6 days), the “increase of bone surface area compared with control (mean±SEM)” value is given as 28%±1.4%. In addition, the bone surface area result in data set [3] (plates pre-treated with ZA at 2, 10 and 20 μM, KBU2046 10 μM) is reported as “significantly increased”.
